Experimental data taken from patent EP4692096A1, “MACROCYCLIC COMPOUND, AND PHARMACEUTICAL COMPOSITION AND USE THEREOF” (Prime Gene Therapeutics Co., Ltd., priority 2023, dated 2024).
Where two headings read alike, the source gives them in different places. One block for each compound: values may come before it.

Key:
[1] = Blood-brain penetration test in rats; type: in vivo, Male SD rats; conditions: for Kp at 5 min / Kp at 0.5 h / concentration at 0.5 h: male, SD, rat; for Kp at 5 min / Kp at 0.5 h: brain/plasma; for Kp at 5 min: IV 2 mg/kg, 5 min after administration; for concentration at 0.5 h: 0.5 h after oral administration (PO, 10 mg/kg)
Method: Male SD rats were divided into groups of three animals each, which were administered the compounds to be tested either by single oral gavage (PO, 10 mg/kg) or by single intravenous injection (IV, 2 mg/kg). Animals were fasted overnight prior to dosing, beginning 10 hours before administration and continuing until 4 hours after dosing. Rats were sacrificed at 0.5 hours after PO administration (or 5 min after IV administration). Blood and brain tissues were collected. The samples were centrifuged at 4000 rpm for 5 min at 4 °C, and plasma was transferred to centrifuge tubes and stored at -80°C until analysis. Plasma samples were processed by protein precipitation extraction, and the extracts were analyzed by LC/MS/MS.

TYK2-JH2 = target: T1, TYK2-JH2 (Homo sapiens, UniProt P29597); experiment: Enzymatic activity (IC50) assay against TYK2-JH2 (fluorescence polarisation, JH2 probe 1); type: binding
T1 construct: Enzymatic activity(IC50) assay of compounds against TYK2-JH2 and JAK1-JH2
T1 sequence (P29597 589-875 limits assumed): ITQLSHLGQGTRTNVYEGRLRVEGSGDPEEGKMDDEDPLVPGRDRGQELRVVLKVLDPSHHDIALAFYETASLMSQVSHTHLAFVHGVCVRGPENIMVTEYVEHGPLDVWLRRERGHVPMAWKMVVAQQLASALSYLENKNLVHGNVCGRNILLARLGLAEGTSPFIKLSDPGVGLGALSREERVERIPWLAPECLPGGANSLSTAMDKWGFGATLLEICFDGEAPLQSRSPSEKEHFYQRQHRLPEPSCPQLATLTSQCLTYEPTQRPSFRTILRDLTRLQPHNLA
Method: (§1) Using an Echo liquid handler, 50 nL of the compound to be tested was transferred into a 384-well reaction plate, in duplicate wells for each compound. The plate was subjected to centrifugation at 1000 rpm for 1 min and the final DMSO concentration was 0.5%. Subsequently, 5 µL of TYK2 (or JAK1) was added to the plate, centrifuged at 1000 rpm for 1 min, and incubated at 25 °C for 10 min. Then, 5 µL of JH2 probe 1 was added to the plate, centrifuged at 1000 rpm for 1 min, and incubation at 25 °C for 60 min. FP 520/48 signals were measured using a BMG high-throughput multifunctional plate reader. Data from the TYK2-JH2 assay were analyzed using GraphPad Prism 8 software. […] After calculating inhibition rates, IC50 values (half-maximal inhibitory concentrations) of the control compounds and the compounds to be tested were determined using nonlinear regression fitting of software. [formula] • Datapositive control: mean value of positive control wells • Datanegative control: mean value of negative control wells

JAK1-JH2 = target: T2, JAK1-JH2 (Homo sapiens, UniProt P23458); experiment: Enzymatic activity (IC50) assay against JAK1-JH2 (fluorescence polarisation, JH2 probe 1); type: binding
T2 construct: Enzymatic activity(IC50) assay of compounds against TYK2-JH2 and JAK1-JH2
T2 sequence (P23458 583-855 limits assumed): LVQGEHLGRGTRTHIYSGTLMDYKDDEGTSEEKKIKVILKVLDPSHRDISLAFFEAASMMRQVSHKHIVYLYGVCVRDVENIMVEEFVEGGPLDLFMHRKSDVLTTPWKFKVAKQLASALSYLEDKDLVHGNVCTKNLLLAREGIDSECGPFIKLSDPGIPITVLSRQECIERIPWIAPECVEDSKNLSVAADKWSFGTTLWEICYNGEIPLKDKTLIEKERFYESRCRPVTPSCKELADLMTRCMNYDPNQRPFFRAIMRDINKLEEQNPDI
Method: as §1

[2] = Pharmacokinetic experiment in rats; type: in vivo, Male SD rats; conditions: for Vd: plasma, iv, 2 mg/kg
Method: Male SD rats were divided into groups of three animals each, which were administered the compound of Example 2 by intravenous injection (2 mg/kg), administered the compound of Example 2 by single oral gavage (10 mg/kg), and administered a control compound by single oral gavage (10 mg/kg), respectively. Animals were fasted overnight prior to dosing, beginning 10 hours before administration and continuing until 4 hours after dosing. For the intravenous group, blood samples were collected at 0.0833, 0.25, 0.5, 1, 2, 4, 6, 8, and 24 h post-dose. For the oral administration groups, blood samples were collected at 0.25, 0.5, 1, 2, 4, 6, 8, and 24 h post-dose. Blood samples (0.3 mL) were collected from the retro-orbital venous plexus under isoflurane anesthesia into heparinized tubes. The samples were centrifuged at 4000 rpm for 5 min at 4 °C, and plasma was transferred to centrifuge tubes and stored at -80°C until analysis. Plasma samples were processed by protein precipitation extraction, and the extracts were analyzed by LC/MS/MS. Pharmacokinetic results are shown in Tables 2 and 3: Table 2: Pharmacokinetic parameters of the compound in Example 2 in rat plasma after intravenous administration

[3] = read-out: brain/blood concentration ratio
[4] = male, SD, rat plasma, single oral gavage 10 mg/kg
[5] = male, SD, rat plasma, intravenous injection 2 mg/kg

SMILES: CNc1cc2nn3c(cnc13)C(=O)O[C@@H]1CCC[C@@H]1OCc1cc(c3nnn(C)c3c1)N2 [Example 5, (6^1R,6^2R,E)-3^1-methyl-1^8-(methylamino)-3^1H-5,7-dioxa-2-azazo-1(6,3)-imidazo[1,2-b]pyridazine-3(4,6)-benzo[d][1,2,3]triazole-6(1,2)-cyclopentane cyclooctafuran-8-one]
Kp at 5 min [1, 3]: 1.21
IC50 (TYK2-JH2): < 5 nM
IC50 (JAK1-JH2): > 5 µM

SMILES: CNc1cc2nc3c(cnn13)C(=O)N[C@H](C)COCc1ccc(OC)c(c1)N2 [control compound B, reference compound]
AUC(0-inf) [2, 4]: 332 ng·h/mL
AUC(0-t) [2, 4]: 327 ng·h/mL
Cmax [2, 4]: 192 ng/mL
MRT [2, 4]: 1.63 h
Tmax [2, 4]: 30 min
half-life [2, 4]: 64.8 min
Kp at 5 min [1, 3]: 0.228

SMILES: CNc1cc2nc3c(cnn13)C(=O)O[C@@H]1CCC[C@H]1OCc1cc(c3nnn(C)c3c1)N2 [Example 6, (1^3E,1^4E,6^1R,6^2R)-3^1-methyl-1^7-(methylamino)-3^1H-5,7-dioxa-2-azazo-1(5,3)-pyrazolo[1,5-a]pyrimidine-3(4,6)-benzo[d][1,2,3]triazole-6(1,2)-cyclopentane cyclooctafuran-8-one]
Kp at 5 min [1, 3]: 0.322
IC50 (TYK2-JH2): < 10 nM

SMILES: CNc1cc2nn3c(cnc13)C(=O)OC[C@H](C)OCc1ccc(OC)c(c1)N2 [Example 3, (6S, E)-3^6-methoxy-6-methyl-1^8-(methylamino)-5,8-dioxa-2-azazo-1(6,3)-imidazo[1,2-b]pyridazine-3(1,3)-benzheterocyclononan-9-one]
IC50 (TYK2-JH2): < 20 nM
IC50 (JAK1-JH2): > 5 µM

SMILES: CNc1cc2nc3c(cnn13)C(=O)OCC(C)OCc1ccc(OC)c(c1)N2 [Example 4, (S, 1^3E,1^4E)-3^6-methoxy-6-methyl-1^7-(methylamino)-5,8-dioxa-2-azazo-1(5,3)-pyrazolo[1,5-a]pyrimidine-3(1,3)-benzheterocyclononan-9-one]
IC50 (TYK2-JH2): < 20 nM
IC50 (JAK1-JH2): > 5 µM

SMILES: CNc1cc2nc3c(cnn13)C(=O)O[C@H](C)COCc1cc(c(=O)n(C)c1)N2 [Example 8, (R,1^3E,1^4E,3^3E)-3^1,7-dimethyl-1^7-(methylamino)-3^1,3^2-dihydro-5,8-dioxa-2-azazo-1(5, 3)-pyrazolo[1,5-a]pyrimidine-3 (3,5)-pyridine heterocyclononane-3^2,9-dione]
IC50 (TYK2-JH2): < 5 nM
IC50 (JAK1-JH2): > 5 µM

SMILES: CNc1cc2nn3c(cnc13)C(=O)N[C@@H]1CCC[C@H]1OCc1cc(c3nnn(C)c3c1)N2 [control compound A, reference compound]
AUC(0-inf) [2, 4]: 735 ng·h/mL
AUC(0-t) [2, 4]: 592 ng·h/mL
Cmax [2, 4]: 126 ng/mL
MRT [2, 4]: 3.16 h
Tmax [2, 4]: 110 min
half-life [2, 4]: 184 min
brain penetration (in words) [1]: very low brain penetration
Kp at 5 min [1, 3]: 0.0879
IC50 (TYK2-JH2): < 5 nM
IC50 (JAK1-JH2): > 1 µM

More lines, main results first:

brain penetration (in words) [1]: very low brain penetration
Kp at 0.5 h ([1]; PO 10 mg/kg, 0.5 hours after administration, read-out: brain/blood concentration ratio): 0.032
SMILES: [2H]C([2H])([2H])NC(=O)c1nnc(NC(=O)C2CC2)cc1Nc1cccc(-c2ncn(C)n2)c1OC [Deucravacitinib, reference compound]

Kp at 5 min [1, 3]: 3.15
IC50 (TYK2-JH2): < 5 nM
IC50 (JAK1-JH2): > 5 µM
SMILES: CNc1cc2nn3c(cnc13)C(=O)O[C@H](C)COCc1ccc(OC)c(c1)N2 [Example 1, (7R,E)-3^6-methoxy-7-methyl-1^8-(methylamino)-5,8-dioxa-2-aza-1(6,3)-imidazo[1,2-b]pyridazin-3(1,3)-benzocyclononan-9-one]

Vd ([2]; male, SD, rat, rat plasma, intravenous injection 2 mg/kg, read-out: Vss): 1.28 L/kg
Vd ([2]; male, SD, rat, rat plasma, intravenous injection 2 mg/kg, read-out: Vz): 1.33 L/kg
AUC(0-inf) [2, 5]: 2030 ng·h/mL
AUC(0-t) [2, 5]: 2020 ng·h/mL
C0 [2, 5]: 2260 ng/mL
MRT [2, 5]: 1.28 h
clearance [2, 5]: 16.7 mL/min/kg
half-life [2, 5]: 55.8 min
AUC(0-inf) [2, 4]: 5780 ng·h/mL
AUC(0-t) [2, 4]: 5770 ng·h/mL
Cmax [2, 4]: 2460 ng/mL
MRT [2, 4]: 1.97 h
Tmax [2, 4]: 30 min
half-life [2, 4]: 148 min
Bioavialibility ([2]; rat, oral 10 mg/kg vs intravenous 2 mg/kg): 57.1%
brain penetration (in words) [1]: remarkably high brain penetration
brain/blood concentration ratio ([1]; PO 10 mg/kg, 0.5 hours after administration): 508%
concentration at 0.5 h ([1]; brain, read-out: concentration in brain tissue): 2620 ng/mL
Kp at 0.5 h ([1]; 10 mg/kg, 0.5 hours post oral dosing, printed as plain ratio, read-out: brain-blood concentration ratio): 5.08
concentration at 0.5 h ([1]; plasma, read-out: concentration in plamsa): 515 ng/mL
IC50 (TYK2-JH2): < 5 nM
IC50 (JAK1-JH2): > 5 µM
SMILES: CNc1cc2nc3c(cnn13)C(=O)OC(C)COCc1ccc(OC)c(c1)N2 [Example 2, (R,1^3E,1^4E)-3^6-methoxy-7-methyl-1^7-(methylamino)-5,8-dioxa-2-aza-1(5,3)-pyrazolo[1,5-a]pyrimidin-3(1,3)-benzheterocyclononan-9-one]
oral drug exposure (in words) ([2]; rat, single oral gavage 10 mg/kg): much better than that of the control compounds A and B

IC50 (TYK2-JH2): < 5 nM
IC50 (JAK1-JH2): > 5 µM
SMILES: CNc1cc2nn3c(cnc13)C(=O)O[C@H](C)COCc1cc(c(=O)n(C)c1)N2 [Example 7, (1^5E,3^3E,7R)-3^1,7-dimethyl-1^8-(methylamino)-3^1,3^2-dihydro-5,8-dioxa-2-azazo-1(6,3)-imidazo[1,2-b]pyridazine-3(3,5)-pyridine heterocyclononane-3^2,9-dione]
